According to patent publication US12036208B2, “Methods for treating neurodegenerative disorders” (Alzheon, Inc., priority 2017, dated 2024):

Biological target: T1, recombinant human β-Amyloid Peptide (1-42) (Homo sapiens, UniProt P05067)
T1 construct: recombinant human β-Amyloid Peptide (1-42) from BioLegend; purchased BioLegend 843801
Test: Binding assay: mass spectrometry (Q-TOF) of compounds binding to Aβ1-42
Conditions: 22 pmol/μL β-Amyloid Peptide (1-42), 1100 pmol/μL test compound; direct infusion Q-TOF MS at room temperature
From the text: The activity of the compounds utilized in the methods described herein can be assayed by measuring the binding of those compounds to β-amyloid. Data acquisition can be performed using a Waters Synapt G2-S quadrupole time of flight mass spectrometer (Q-TOF MS) with traveling wave ion mobility (Waters Corp. 34 Maple Street Milford, MA 01757). The data can be acquired using the systems sensitivity mode to allow for the detection of the less abundant oligomers. Samples can be infused at room temperature due to lower solubility of the peptide at body temperature ([…]).
One mg of compound can be reconstituted in 1 mL of Fisher Optima LC/MS grade water (cat: W6-1) and vortexed vigorously for 2 minutes until completely dissolved. The sample can be then diluted to create a 220 pmol/μL, 2200 pmol/μL, and 22,000 pmol/μL solutions to perform binding experiments to Aβ42 with 10-, 100-, and 1000-fold molar excess of tested compound.
One mg of recombinant human β-Amyloid Peptide (1-42) from BioLegend can be reconstituted in 200 μL of Fisher Optima LC/MS grade water and vortexed vigorously to solubilize the peptide creating a 5 mg/mL solution. Samples can be then diluted to a final concentration of 44 pmol/μL prior to mixing (1:1) with test compound solution. Final concentrations were 22 pmol/μL for human β-Amyloid Peptide (1-42) and 1100 pmol/μL for test compounds.
The data acquisition was performed using a Waters time of flight mass spectrometer (Q-TOF Micro). The data was acquired using the scanning mode to allow for the detection of the peptide. Samples were infused at room temperature. The mass spectrometer conditions were maintained throughout the study to ensure consistency of the data. The Waters Q-TOF conditions were as follows:
Samples were directly infused into the mass spectrometer at a flow rate of 20 μL/min using in-build Syringe Pump and Hamilton 1 mL Syringe and the acquisition time was kept 2 minutes.

T1 sequence (P05067 672-713 limits assumed): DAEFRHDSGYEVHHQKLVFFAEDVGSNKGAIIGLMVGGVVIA

SMILES	Number of Molecules Bound to Aβ1-42 (# of Molecules Bound to Aβ)
O=S(=O)(O)c1nnc[nH]1 [Compound 117]	3
Cn1cc(S(=O)(=O)O)cn1 [Compound 118]	1
Cn1cnnc1S(=O)(=O)O [Compound 119]	0
C[n+]1cccc(S(=O)(=O)[O-])c1 [Compound 120]	8
Nc1cccc(S(=O)(=O)O)c1 [Compound 121]	0
Nc1ccc(S(=O)(=O)O)cc1 [Compound 122]	0
Nc1ncc(S(=O)(=O)O)s1 [Compound 124]	3
NCc1ccc(S(=O)(=O)O)cc1 [Compound 125]	0
Nc1ccc(N)c(S(=O)(=O)O)c1 [Compound 126]	1
Nc1ccc(S(=O)(=O)O)c(N)c1 [Compound 127]	0
Nc1cc(S(=O)(=O)O)ccc1O [Compound 128]	0
O=S(=O)(O)c1ccc2[nH]cnc2c1 [Compound 130]	0
O=S(=O)(O)c1ccc2c(c1)NCC2 [Compound 131]	0
Cn1c(S(=O)(=O)O)nc2ccccc21 [Compound 133]	0
Nc1ncnc2[nH]c(S(=O)(=O)O)nc12 [Compound 134]	2
Nc1ccc2cc(S(=O)(=O)O)ccc2c1 [Compound 135]	0
Nc1cccc2ccc(S(=O)(=O)O)cc12 [Compound 136]	0
Nc1ccc(S(=O)(=O)O)c2ccccc12 [Compound 137]	0
Nc1cccc2c(S(=O)(=O)O)cccc12 [Compound 138]	0
Nc1cccc2cc(S(=O)(=O)O)ccc12 [Compound 139]	0
Nc1ccc2c(S(=O)(=O)O)cccc2c1 [Compound 140]	0
O=C1Nc2ccc(S(=O)(=O)O)cc2CO1 [Compound 141]	0
Nc1nc2ccc(S(=O)(=O)O)cc2s1 [Compound 142]	2

SMILES	Number of Molecules Bound to Aβ1-42 (# of Molecules Bound to Aβ)
Nc1cc(S(=O)(=O)O)cc(C(=O)O)c1O [Compound 143]	0
Nc1ccc2c(S(=O)(=O)O)cccc2c1N [Compound 144]	0
CCCn1c(S(=O)(=O)O)nc2ccccc21 [Compound 145]	0
Nc1ccc2cc(S(=O)(=O)O)ccc2c1.O [Compound 146]	0
Cc1cc(C)[n+]2cc(S(=O)(=O)[O-])sc2n1 [Compound 148]	5
Nc1ccc2ccc(S(=O)(=O)[O-])cc2c1.[Na+] [Compound 149]	0
O=S(=O)(O)c1ccc(Nc2ccccc2)cc1 [Compound 150]	0
COC(=O)c1cc(OC)c(S(=O)(=O)O)s1 [Compound 151]	0
Cc1cc(C)n(-c2ccc(S(=O)(=O)O)cc2)n1 [Compound 152]	1
CC[n+]1ccc(-c2cccc(S(=O)(=O)[O-])c2)o1 [Compound 153]	5
Cc1cc(=O)n(-c2cccc(S(=O)(=O)O)c2)[nH]1 [Compound 154]	1
CN(C)C(=O)[n+]1ccc(CCS(=O)(=O)[O-])cc1 [Compound 158]	0
Nc1ccc(Nc2ccc(N)cc2S(=O)(=O)O)cc1 [Compound 160]	1
O=C(O)c1cc(=O)n(-c2ccc(S(=O)(=O)O)cc2)[nH]1 [Compound 161]	0
CCOC(=O)c1cnn(-c2ccc(S(=O)(=O)O)cc2)c1N [Compound 163]	0
Cc1ccc2nc(-c3ccc(N)cc3)sc2c1S(=O)(=O)O [Compound 164]	0
Cc1oc2ccc(-c3ccccc3)cc2[n+]1CCCS(=O)(=O)[O-] [Compound 165]	1
Nc1ccc(-c2ccc(N)cc2S(=O)(=O)O)c(S(=O)(=O)O)c1 [Compound 166]	2
Nc1cc(S(=O)(=O)[O-])c2cccc(S(=O)(=O)[O-])c2c1.[Na+].[Na+] [Compound 167]	0
NC1=NN(c2ccc(Oc3ccccc3)c(S(=O)(=O)O)c2)C(=O)C1 [Compound 168]	0
Nc1ccc(S(=O)(=O)O)cn1 [Compound 170]	6
Nc1ccncc1S(=O)(=O)O [Compound 171]	7
Nc1nc2cc(S(=O)(=O)O)cc(N)c2o1 [Compound 172]	0
